{"source": "patent US20110217202A1", "about": "“ACTIVE OXYGEN DISINFECTION SYSTEM AND USE THEREOF” (priority 2010, published 2011)", "key": {"S. marcescens": {"system": "S. marcescens", "assay": "Photosensitizer with or without H2O2 or PHMB, rate of kill, S. marcescens", "assay_type": "cell-based", "procedure": "All solutions (testing and control) are then incubated for about 5 minutes at 37° C. in the dark in an orbital incubator prior to exposure to the relevant light conditions. […]\n(§1) After incubation overnight, the colony forming units at the dilution where they can best be counted are quantified and number of colony forming units per mL calculated.\nIn all instances the bacterial challenge is at least 5×10^5 cfu/mL. SoftWear Saline (providing 0.003% H2O2), photosensitizer solutions are made up at double the concentration to be tested using the SoftWear Saline as the diluent. 2.5 mLs of this solution is then mixed with 2.5 mLs of bacteria to form the test solutions.\nIn all instances the bacterial challenge is at least 5×10^5 cfu/mL. Solutions containing the photosensitizers and PHMB are made up separately at quadruple the concentration to be tested."}, "P. aeruginosa": {"system": "P. aeruginosa", "assay": "Photosensitizer rate of kill under light exposure, P. aeruginosa", "assay_type": "cell-based", "procedure": "P. aeruginosa is grown in nutrient broth for about 18 hours to bring the bacteria into the logarithmic growth phase prior to being spun down via centrifugation and the pellet resuspended in sterile phosphate buffered saline (PBS). The bacterial suspension is then diluted to obtain an OD of 0.9 at 540 nm. This stock bacterial solution is subsequently diluted 1 in 500 to obtain a test solution containing about 10^5-10^6 cfu/ml.\nA solution of one of the five photosensitizers is made at double the concentration to be tested.\nA testing solution (lens care solution) is prepared by adding 5 mL of a photosensitizer solution to 5 mL of the bacterial solution.\nTwo control solutions are prepared by adding 5 mL of sterile PBS to 5 mL of the bacterial solution. One of the two control solutions is kept in the dark (i.e., Control Dark) and the other one is exposed to the same light conditions as the photosensitizer test solutions (i.e., Control Light).\nAll solutions (testing and control) are then incubated for about 5 minutes at 37° C. in the dark in an orbital incubator prior to exposure to the relevant light conditions. The light source used provides broad spectrum visible light and the temperature is controlled using a fan.\nas §1\nAll solutions are then incubated for about 5 minutes at 37° C. in the dark in an orbital incubator prior to exposure to the relevant light conditions.\nTwo light sources are used to assess antibacterial activity of the range of photosensitizers. One is a broad spectrum light source which emits light across visible spectrum. […] The other light source used is a red LED, which emits light of a single wavelength at 630 nm.\nThe red LED light source emits with a power of 27 mW/cm2. In both instances, the power is measured using an ILT-1400 A Radiometer/Photometer.\nas §1"}, "C. albicans": {"system": "C. albicans", "assay": "Photosensitizer with PHMB, rate of kill, C. albicans", "assay_type": "cell-based", "settings": "10 μg/mL with 0.00005% PHMB; LED 630 nm; one hour; about 10^7 cfu/ml", "procedure": "All materials used and the method used to determine the rate of bacterial kill are described in Example 1 as was the method. In all instances the bacterial challenge is at least 5×10^5 cfu/mL. Solutions containing the photosensitizers and PHMB are made up separately at quadruple the concentration to be tested. 1.25 mLs of each solution is then added to 2.5 mLs of bacteria suspension to render the correct concentration to be tested.\nWhere a testing solution contains 10 μg/mL TMPyP and 0.00005% PHMB, a 5 Log reduction in bacterial viability against about 10^7 cfu/ml C. albicans is observed after one hour of light exposure to a LED (630 nm)."}, "[1]": {"settings": "dissociation constant of the dibasic compound; cited from earlier work"}, "[2]": {"settings": "5 μg/mL, red light/LED 630 nm, one hour, about 10^5 cfu/ml"}, "[3]": {"settings": "10 μg/mL, broad spectrum light source, about 45 minutes, about 10^5 cfu/ml"}}}
{"compound": "CN(C)c1ccc2nc3ccc(=[N+](C)C)cc-3sc2c1", "note": "[MB, Methylene Blue]", "values": [{"measurement": "Log reduction in bacterial viability", "setting": "S. marcescens; 20 μg/mL, free of H2O2, red LED 630 nm, one hour, about 10^5 cfu/ml", "result": "no reduction in bacterial viability"}]}
{"compound": "O=C1OC2(c3cc(I)c(O)c(I)c3Oc3c2cc(I)c(O)c3I)c2c(Cl)c(Cl)c(Cl)c(Cl)c21", "note": "[RB, Rose Bengal]", "values": [{"measurement": "Log reduction in bacterial viability", "setting": "S. marcescens; 10 μg/mL with 0.00005% PHMB, LED 630 nm, 15 minutes, about 10^5 cfu/ml", "result": 2, "unit": "Log"}, {"measurement": "further reduction in bacterial viability on additional light exposure", "setting": "S. marcescens; 10 μg/mL with 0.00005% PHMB, LED 630 nm, additional light exposure up to one hour", "result": "does not reduce bacterial viability"}, {"measurement": "Log reduction in bacterial viability", "setting": "S. marcescens; 10 μg/mL with 0.003% H2O2, LED 630 nm, about 10^5 cfu/ml", "result": "no reduction in bacterial viability"}, {"measurement": "Log reduction in bacterial viability", "setting": "S. marcescens; 10 μg/mL, free of H2O2 or PHMB, LED 630 nm, about 10^5 cfu/ml", "result": "no reduction in bacterial viability"}, {"measurement": "Log reduction in bacterial viability", "setting": "P. aeruginosa; about 250 μg/mL, broad spectrum visible light, 30 minutes, about 10^5 cfu/ml", "result": "5-6 Log"}]}
{"compound": "Cc1cc2nc3ccc(N(C)C)cc3[s+]c2cc1N.[Cl-]", "note": "[TBO, Toluidine Blue O]", "values": [{"measurement": "Log reduction in bacterial viability", "setting": "S. marcescens; 0.625 μg/mL with 0.00005% PHMB, LED 630 nm, about 15 minutes, about 10^5 cfu/ml", "result": 3, "unit": "Log"}, {"measurement": "Log reduction in bacterial viability", "setting": "S. marcescens; 0.625 μg/mL with 0.00005% PHMB, LED 630 nm, about 30 minutes, about 10^5 cfu/ml", "result": "5-6 Log"}, {"measurement": "Log reduction in bacterial viability", "setting": "S. marcescens; 1.25 μg/mL with 0.00005% PHMB, red LED 630 nm, about 15 minutes, about 10^5 cfu/ml", "result": 3, "unit": "Log"}, {"measurement": "Log reduction in bacterial viability", "setting": "S. marcescens; 1.25 μg/mL with 0.00005% PHMB, red LED 630 nm, about 45 minutes, about 10^5 cfu/ml", "result": "5-6 Log"}, {"measurement": "Log reduction in bacterial viability", "setting": "S. marcescens; 2.5 μg/mL with 0.00005% PHMB, red LED 630 nm, about 30 minutes, about 10^5 cfu/ml", "result": "5-6 Log"}, {"measurement": "Log reduction in bacterial viability", "setting": "S. marcescens; 2.5 μg/mL with 0.0005% PHMB, red LED 630 nm, about 15 minutes, about 10^5 cfu/ml", "result": "5-6 Log"}, {"measurement": "Log reduction in bacterial viability", "setting": "S. marcescens; 2.5 μg/mL with 0.003% H2O2, red LED 630 nm, 30 minutes, about 10^5 cfu/ml", "result": "5-6 Log"}, {"measurement": "Log reduction in bacterial viability", "setting": "S. marcescens; 5 μg/mL only, free of H2O2, red LED 630 nm, 45 minutes", "result": "5-6 Log"}, {"measurement": "Log reduction in bacterial viability", "setting": "P. aeruginosa; 5 μg/mL, broad spectrum light source, about 30 minutes, about 10^5 cfu/ml", "result": "5-6 Log"}, {"measurement": "Log reduction in bacterial viability", "setting": "P. aeruginosa; [2]", "result": "5-6 Log"}, {"measurement": "Log reduction in bacterial viability", "setting": "P. aeruginosa; [3]", "result": "5-6 Log"}, {"measurement": "Log reduction in bacterial viability", "setting": "P. aeruginosa; 50 μg/mL, broad spectrum light source, between 30 to 45 minutes, about 10^5 cfu/ml", "result": 3, "unit": "Log"}, {"measurement": "reduction in bacterial viability", "setting": "P. aeruginosa; 250 μg/mL, broad spectrum visible light, time not stated, about 10^5 cfu/ml", "result": "no reduction in bacterial viability"}, {"measurement": "Rate of kill (Log reduction in bacterial viability)", "setting": "P. aeruginosa; 375 μg/mL, broad spectrum visible light, 30 minutes light exposure, about 10^5 cfu/ml", "result": "5-6 Log"}, {"measurement": "Time of Light Exposure", "setting": "P. aeruginosa; 375 μg/mL, broad spectrum visible light, time for the stated rate of kill", "result": 30, "unit": "min"}, {"measurement": "Rate of kill (Log reduction in bacterial viability)", "setting": "P. aeruginosa; 500 μg/mL, broad spectrum visible light, 15 minutes light exposure, about 10^5 cfu/ml", "result": "5-6 Log"}, {"measurement": "Time of Light Exposure", "setting": "P. aeruginosa; 500 μg/mL, broad spectrum visible light, time for the stated rate of kill (Table 2)", "result": 15, "unit": "min"}]}
{"compound": "C[n+]1ccc(-c2c3nc(c(-c4cc[n+](C)cc4)c4ccc([nH]4)c(-c4cc[n+](C)cc4)c4nc(c(-c5cc[n+](C)cc5)c5ccc2[nH]5)C=C4)C=C3)cc1.Cc1ccc(S(=O)(=O)[O-])cc1.Cc1ccc(S(=O)(=O)[O-])cc1.Cc1ccc(S(=O)(=O)[O-])cc1.Cc1ccc(S(=O)(=O)[O-])cc1", "note": "[TMPyP, tetra(N-methyl-4-pyridyl)porphine tetratosylate]", "values": [{"measurement": "Log reduction in bacterial viability", "setting": "C. albicans", "result": 5, "unit": "Log"}, {"measurement": "Log reduction in bacterial viability", "setting": "S. marcescens; 10 μg/mL with 0.00005% PHMB, red LED 630 nm, about 45 minutes, about 10^5 cfu/ml", "result": 3, "unit": "Log"}, {"measurement": "Log reduction in bacterial viability", "setting": "S. marcescens; 10 μg/mL with 0.0005% PHMB, red LED 630 nm, about 15 minutes, about 10^5 cfu/ml", "result": "5-6 Log"}, {"measurement": "Log reduction in bacterial viability", "setting": "S. marcescens; 10 μg/mL with 0.003% H2O2, red LED 630 nm, one hour, about 10^5 cfu/ml", "result": "about 3 Log"}, {"measurement": "Log reduction in bacterial viability", "setting": "P. aeruginosa; 5 μg/mL, broad spectrum light source, one hour, about 10^5 cfu/ml", "result": 2, "unit": "Log"}, {"measurement": "Log reduction in bacterial viability", "setting": "P. aeruginosa; 5 μg/mL, broad spectrum light source, two hours, about 10^5 cfu/ml", "result": "5-6 Log"}, {"measurement": "Log reduction in bacterial viability", "setting": "P. aeruginosa; [2]", "result": 2, "unit": "Log"}, {"measurement": "Log reduction in bacterial viability", "setting": "P. aeruginosa; [3]", "result": "5-6 Log"}, {"measurement": "Log reduction in bacterial viability", "setting": "P. aeruginosa; 10 μg/mL, red LED 630 nm, about 45 minutes, about 10^5 cfu/ml", "result": "5-6 Log"}, {"measurement": "Rate of kill (Log reduction in bacterial viability)", "setting": "P. aeruginosa; 50 μg/mL, broad spectrum visible light, 45 minutes light exposure, about 10^5 cfu/ml", "result": "5-6 Log"}, {"measurement": "Time of Light Exposure", "setting": "P. aeruginosa; 50 μg/mL, broad spectrum visible light, time for the stated rate of kill", "result": 45, "unit": "min"}, {"measurement": "Rate of kill (Log reduction in bacterial viability)", "setting": "P. aeruginosa; 250 μg/mL, broad spectrum visible light, 45 minutes light exposure, about 10^5 cfu/ml", "result": "5-6 Log"}, {"measurement": "Time of Light Exposure", "setting": "P. aeruginosa; 250 μg/mL, broad spectrum visible light, time for the stated rate of kill", "result": 45, "unit": "min"}, {"measurement": "Rate of kill (Log reduction in bacterial viability)", "setting": "P. aeruginosa; 500 μg/mL, broad spectrum visible light, 30 minutes light exposure, about 10^5 cfu/ml", "result": "5-6 Log"}, {"measurement": "Time of Light Exposure", "setting": "P. aeruginosa; 500 μg/mL, broad spectrum visible light, time for the stated rate of kill (Table 1)", "result": 30, "unit": "min"}]}
{"compound": "Cl.Cl.O=S(=O)(O)c1ccc(-c2c3nc(c(-c4ccc(S(=O)(=O)O)cc4)c4ccc([nH]4)c(-c4ccc(S(=O)(=O)O)cc4)c4nc(c(-c5ccc(S(=O)(=O)O)cc5)c5ccc2[nH]5)C=C4)C=C3)cc1", "note": "[TSPP, meso-tetra(4-sulfonatophenyl)porphine dihydrochloride]", "values": [{"measurement": "biocidal activity", "setting": "P. aeruginosa; about 1 mg/mL, broad spectrum visible light, about 10^5 cfu/ml", "result": "no significant biocidal activity"}]}
{"compound": "OCC(CO)(CO)NCCCNC(CO)(CO)CO", "note": "[bis-TRIS-propane, 1,3-bis(tris[hydroxymethyl]methylamino)propane]", "values": [{"measurement": "pKa1", "setting": "[1]", "result": 6.8}, {"measurement": "pKa2", "setting": "[1]", "result": 9.5}]}
{"compound": "polyhexamethylene biguanide [PHMB]", "values": [{"measurement": "Log reduction in bacterial viability", "setting": "S. marcescens; 0.00005% PHMB without any sensitizer, one hour, about 10^5 cfu/ml", "result": 1, "unit": "Log"}]}
